For series [1], the target named is A33 antigen (human) (UniProt Q99795). As to the kind of experiment: immunoreactivity assay of the radiolabelled antibody (cells not given).
Series [2] has the same target. As to the kind of experiment: immunoreactivity of the TCO-modified antibody (assay not described in this sentence).
Series [3] concerns subcutaneous SW1222 xenografts. Put plainly: pre-targeted biodistribution: A33-TCO, 24 h later ^64Cu-Tz-Bn-NOTA. Type of series: in vivo, mice. As to conditions: for Biodistribution: Blood / Biodistribution: Bone / Biodistribution: Feces / Biodistribution: Heart / Biodistribution: Kidney / Biodistribution: Large intestine / Biodistribution: Liver / Biodistribution: Lung / Biodistribution: Muscle / Biodistribution: Skin / Biodistribution: Small intestine / Biodistribution: Spleen / Biodistribution: Stomach / Biodistribution: Tumor: A33-TCO (100 μg) 24 h before ^64Cu-Tz-Bn-NOTA; for uptake in all other tissues (not tumor, feces): generally. Here is the method: Values are represented as % ID/g±SD. Mice (n=4) bearing subcutaneous SW1222 xenografts were administered huA33-TCO (100 μg) via tail vein injection. After 24 hours the same mice were administered ^64Cu-Tz-Bn-NOTA (0.55-0.75 MBq [15-20 μCi] via tail vein injection (t=0).
Following the synthesis and characterization of the components of the system, in vivo pre-targeted biodistribution and PET imaging experiments were performed. For the pre-targeted biodistribution experiments, mice bearing SW1222 xenografts were administered huA33-TCO (100 μg) via tail vein injection. After a 24 h interval, the mice were administered ^64Cu-Tz-NOTA via tail vein injection. The data reveal rapid accumulation and retention of activity in the tumor, with 4.1±0.3% ID/g at 1 h p.i and 4.2±0.3% ID/g at 12 h p.i. (Table 1). The compound is excreted through the feces, with high levels of activity at 1 h p.i. dropping to 0.9±0.1% ID/g at 12 h, and the amount of uptake in other tissues remains very low, generally less than 0.3% ID/g.
For the pre-targeted biodistribution experiments, mice bearing subcutaneous SW1222 xenografts were administered A33-TCO ([…]) via tail vein injection. […] The data reveal rapid accumulation and retention of radioactivity in the tumor, with 4.1±0.3 percent injected dose per gram (% ID/g) at 1 h after injection, 4.2±0.8% ID/g at 12 h, and 4.0±0.9% ID/g at 24 h (Table 1). The compound is excreted through the feces, with high levels of activity at 1 h after injection dropping to 2.5±0.1% ID/g at 12 h. The amount of uptake in all other tissues remains low, generally less than 1% ID/g.
The specificity of antibodies have made immunoconjugates promising vectors for the delivery of radioisotopes to cancer cells; however, their long pharmacologic half-lives necessitate the use of radioisotopes with long physical half-lives, a combination that leads to high radiation doses to patients. Therefore, the development of targeting modalities that harness the advantages of antibodies without their pharmacokinetic limitations is desirable. To this end, we report the development of a methodology for pre-targeted PET imaging based on the bioorthogonal Diels-Alder click reaction between tetrazine and transcyclooctene. A proof-of-concept system based on the A33 antibody, SW1222 colorectal cancer cells, and ^64Cu was used. The huA33 antibody was covalently modified with transcyclooctene, and a NOTA-modified tetrazine was synthesized and radiolabeled with ^64Cu. Pre-targeted in vivo biodistribution and PET imaging experiments were performed with athymic nude mice bearing A33 antigen-expressing, SW1222 colorectal cancer xenografts. The huA33 antibody was modified with transcyclooctene to produce a conjugate with high immunoreactivity, and the ^64Cu-NOTA-labeled tetrazine ligand was synthesized with greater than 99% purity and a specific activity of 9-10 MBq/mg. For in vivo experiments, mice bearing SW1222 xenografts were injected with transcyclooctene-modified A33; after allowing 24 h for accumulation of the antibody in the tumor, the mice were injected with 64Cu-NOTA-labeled tetrazine for PET imaging and biodistribution experiments. At 12 h after injection, the retention of uptake in the tumor ([…] percent injected dose per gram), coupled with the fecal excretion of excess radioligand, produced images with high tumor-to-background ratios. […] Conclusion: The high quality of the images produced by this pretargeting approach, combined with the ability of the methodology to dramatically reduce non-target radiation doses to patients, marks this system as a strong candidate for clinical translation.

The nature of series [4]: in vitro stability of the radioligand in human serum at 37° C., HPLC. The format is in vitro ADME. Here is the method: (§1) The stability of the radioligand was assayed in vitro by incubation in human serum at 37° C. and subsequent HPLC analysis. The ^64Cu-Tz-Bn-NOTA remained relatively stable after 1 h, with 93.0%±2.5% intact. […] In addition, in vivo stability experiments were performed, and these produced similar results, although some acceleration in decomposition can be noted: 77%±3% of the ^64Cu-Tz-Bn-NOTA is intact in the blood after 60 min, followed by 47%±2% after 2 h and 22%±3% after 6 h. Although greater stability may be preferable, the speed of the cycloaddition reaction and the rapid pharmacokinetics of the radioligand led us to believe it unlikely that poor serum stability at later time points would limit the system.

Series [5] can be described thus: in vivo stability of the radioligand in the blood. Here is the method:
as §1

Series [6] concerns the target A33 antigen (human) (UniProt Q99795). As to the kind of experiment: immunoreactivity assay with A33 antigen-expressing SW1222 human colorectal cancer cells, radiolabelled antibody.

UniProt Q99795, sequence (Q99795 22-319): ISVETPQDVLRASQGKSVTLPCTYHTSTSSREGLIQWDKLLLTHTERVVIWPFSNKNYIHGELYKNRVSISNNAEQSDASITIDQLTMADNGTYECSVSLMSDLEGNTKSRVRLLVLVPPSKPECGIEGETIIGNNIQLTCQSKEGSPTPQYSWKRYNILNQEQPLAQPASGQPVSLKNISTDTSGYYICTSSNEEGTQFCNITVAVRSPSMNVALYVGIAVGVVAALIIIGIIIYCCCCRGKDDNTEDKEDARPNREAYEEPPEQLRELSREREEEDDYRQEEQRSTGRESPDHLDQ

^89Zr-DFO-A33 (antibody) had an immunoreactivity in series [1] of 92%.

For “TCO-modified huA33 (huA33-TCO) (antibody)”, the immunoreactivity in series [2] was more than 95%.

For the molecule `O=C([O-])CN1CCN(CC(=O)[O-])CC(Cc2ccc(NC(=O)CCCC(=O)NCc3ccc(-c4nncnn4)cc3)cc2)N(CC(=O)[O-])CC1.[64Cu+2]` (stereo not drawn) [^64Cu-Tz-Bn-NOTA], in series [3] (1 h), the “Biodistribution: Blood” value stood at 3.5 ± 0.6 % ID/g, the “Biodistribution: Bone” value is 0.3 ± 0.2 % ID/g, the “Biodistribution: Feces” value was 11.9 ± 4.4 % ID/g and the “Biodistribution: Heart” value amounted to 1.1 ± 0.2 % ID/g. For the same molecule, in series [3] (1 h), the “Biodistribution: Kidney” value was 1.3 ± 0.1 % ID/g, the “Biodistribution: Large intestine” value is on record as 0.5 ± 0.0 % ID/g, the “Biodistribution: Liver” value was 2.2 ± 0.3 % ID/g and the “Biodistribution: Lung” value came to 1.6 ± 0.5 % ID/g. Moreover, in series [3] (1 h), the “Biodistribution: Muscle” value came out at 0.2 ± 0.0 % ID/g, the “Biodistribution: Skin” value is recorded as 0.3 ± 0.1 % ID/g, the “Biodistribution: Small intestine” value amounted to 0.0 ± 0.0 % ID/g and the “Biodistribution: Spleen” value is on record as 0.6 ± 0.1 % ID/g. Also, in series [3] (1 h), the “Biodistribution: Stomach” value is on record as 0.5 ± 0.1 % ID/g and the “Biodistribution: Tumor” value was determined as 4.1±0.3 % ID/g. The “Biodistribution: Tumor” value in series [3] (1 h, listed as 64Cu-Tz-NOTA) was determined as 4.1±0.3 % ID/g. Also, in series [3] (4 h), the “Biodistribution: Blood” value is reported as 2.6 ± 0.8 % ID/g, the “Biodistribution: Bone” value is 0.3 ± 0.2 % ID/g, the “Biodistribution: Feces” value was found to be 8.8 ± 3.4 % ID/g and the “Biodistribution: Heart” value amounted to 0.9 ± 0.3 % ID/g. Further, in series [3] (4 h), the “Biodistribution: Kidney” value turned out to be 0.9 ± 0.3 % ID/g, the “Biodistribution: Large intestine” value was 3.1 ± 1.1 % ID/g, the “Biodistribution: Liver” value came out at 1.3 ± 0.3 % ID/g and the “Biodistribution: Lung” value was found to be 1.6 ± 0.4 % ID/g. Moreover, in series [3] (4 h), the “Biodistribution: Muscle” value was 0.1 ± 0.0 % ID/g, the “Biodistribution: Skin” value came to 0.3 ± 0.1 % ID/g, the “Biodistribution: Small intestine” value came to 0.4 ± 0.1 % ID/g and the “Biodistribution: Spleen” value came out at 0.5 ± 0.2 % ID/g. Further, in series [3] (4 h), the “Biodistribution: Stomach” value is 0.3 ± 0.1 % ID/g and the “Biodistribution: Tumor” value stood at 4.1 ± 0.6 % ID/g. For the same molecule, in series [3] (12 h), the “Biodistribution: Blood” value came out at 2.3 ± 0.4 % ID/g, the “Biodistribution: Bone” value is 0.4 ± 0.1 % ID/g, the “Biodistribution: Feces” value was determined as 2.5±0.1 % ID/g and the “Biodistribution: Heart” value was found to be 0.9 ± 0.1 % ID/g. In series [3] (12 h), the “Biodistribution: Kidney” value is 0.9 ± 0.3 % ID/g, the “Biodistribution: Large intestine” value is given as 2.3 ± 1.0 % ID/g, the “Biodistribution: Liver” value is 0.9 ± 0.2 % ID/g and the “Biodistribution: Lung” value stood at 1.1 ± 0.4 % ID/g. In addition, in series [3] (12 h), the “Biodistribution: Muscle” value came to 0.2 ± 0.0 % ID/g, the “Biodistribution: Skin” value was 0.4 ± 0.1 % ID/g, the “Biodistribution: Small intestine” value was determined as 0.8 ± 0.5 % ID/g and the “Biodistribution: Spleen” value is listed as 0.6 ± 0.3 % ID/g. Also, in series [3] (12 h), the “Biodistribution: Stomach” value is listed as 0.5 ± 0.6 % ID/g and the “Biodistribution: Tumor” value turned out to be 4.2±0.8 % ID/g. Further, the “Biodistribution: Tumor” value in series [3] (12 h, listed as 64Cu-NOTA-labeled tetrazine) is on record as 4.1±0.3 % ID/g. Moreover, in series [3] (12 h, listed as 64Cu-Tz-NOTA), the “Biodistribution: Feces” value is recorded as 0.9±0.1 % ID/g and the “Biodistribution: Tumor” value is recorded as 4.2±0.3 % ID/g. Also, the “tumor-to-muscle activity concentration ratio” value in series [3] (12 h, pre-targeting, A33-TCO 24 h before radioligand) is 26.6±6.6. For the same molecule, in series [3] (24 h), the “Biodistribution: Blood” value amounted to 2.1 ± 0.5 % ID/g, the “Biodistribution: Bone” value amounted to 0.3 ± 0.1 % ID/g, the “Biodistribution: Feces” value came to 1.4 ± 0.5 % ID/g and the “Biodistribution: Heart” value was found to be 0.8 ± 0.2 % ID/g. Besides, in series [3] (24 h), the “Biodistribution: Kidney” value stood at 0.7 ± 0.2 % ID/g, the “Biodistribution: Large intestine” value turned out to be 1.1 ± 0.4 % ID/g, the “Biodistribution: Liver” value was determined as 1.1 ± 0.2 % ID/g and the “Biodistribution: Lung” value came to 1.0 ± 0.3 % ID/g. Besides, in series [3] (24 h), the “Biodistribution: Muscle” value was determined as 0.1 ± 0.0 % ID/g, the “Biodistribution: Skin” value was 0.5 ± 0.2 % ID/g, the “Biodistribution: Small intestine” value is 0.3 ± 0.0 % ID/g and the “Biodistribution: Spleen” value came out at 0.4 ± 0.1 % ID/g. For the same molecule, in series [3] (24 h), the “Biodistribution: Stomach” value came out at 0.2 ± 0.0 % ID/g and the “Biodistribution: Tumor” value amounted to 4.0±0.9 % ID/g. The “uptake in all other tissues (not tumor, feces)” value in series [3] (pre-targeting) was “less than 1 % ID/g”. In series [3] (pre-targeting, listed as 64Cu-Tz-NOTA), the “uptake in all other tissues (not tumor, feces)” value is given as “less than 0.3 % ID/g”. In addition, the radioligand intact in series [4] (1 h) is given as 93.0%±2.5%. In addition, the radioligand intact in series [4] (12 h) was 31.6%±6.1%. In series [5] (60 min), the “radioligand intact in the blood” value is listed as 77%±3%. In series [5] (2 h), the “radioligand intact in the blood” value is 47%±2%. Also, in series [5] (6 h), the “radioligand intact in the blood” value was 22%±3%.

In the case of “^64Cu-NOTA-A33 (A33-TCO reacted with ^64Cu-Tz-Bn-NOTA) (antibody)”, the immunoreactivity in series [6] is 95.6%; in series [1], more than 95%.

For the origin of these results see patent publication US20150359913A1, “TETRAZINES/TRANS-CYCLOOCTENES IN SOLID PHASE SYNTHESIS OF LABELED PEPTIDES” (MEMORIAL SLOAN-KETTERING CANCER CENTER, priority 2013, published 2015).
